Data: PMC9468151, “Identification of a binding site on soluble RANKL that can be targeted to inhibit soluble RANK-RANKL interactions and treat osteoporosis” (Nature Communications, 2022)
Several values for one entry are separate records, joined by “and”; a condition that tells them apart may be missing. Equal values may be shown once.

Legend:
[1] = tested on: RANKL-induced resorption pits; assay: Hydroxyapatite resorption assay; type: cell-based, mouse; conditions: in words
Experimental: BMMs (1 × 10^5 cells/well) were cultured onto 6-well collagen-coated plates and stimulated with 100 ng/mL sRANKL and 10 ng/mL M-CSF for 3 days to generate early stage of osteoclasts began differentiation. Then early-stage osteoclasts were gently harvested using cell dissociation solution, and seeded into OsteoAssay Surface (hydroxyapatite-coated) 24-well plates. Early-stage osteoclasts were continue incubated in a medium containing sRANKL and M-CSF with or without treatment. After 48 h, wells were bleached to remove cells, followed by image acquisition for the measurement of resorbed areas using a Leica microscope. The percentage of surface resorbed was analyzed using ImageJ software.

[2] = tested on: sRANKL induced osteoclast differentiation; assay: In vitro anti-osteoclastogenesis activity determination (TRAP staining); type: cell-based, mouse; set-up: key to inhibition of osteoclastogenesis, dose-response (fig. S2a): % inhibition = 100 − (treated−unstimulated)/(untreated−unstimulated)×100
Outline: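 Mouse bone-marrow macrophages in 10 ng/mL M-CSF were stimulated with 100 ng/mL sRANKL plus compound at 9 concentrations, refreshed every 2 days, triplicate wells. After 5 days TRAP-stained osteoclasts were counted; inhibition normalised to untreated and unstimulated controls, IC50 by nonlinear regression.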

[3] = In vitro cytotoxicity assay (MTT); type: cell-based, mouse; conditions: mouse, RAW264.7 cells
Outline: (§1)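 Log-phase cells were seeded at 6 × 10^3 per well and incubated 24 h, with viability read by MTT. Growth inhibition (%) was calculated from OD relative to vehicle wells. CC50 came from nonlinear regression curve fitting.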

RAW264.7 cells = assay: In vitro cytotoxicity assay (MTT); type: cell-based, mouse
Outline: as §1

OVX rats = assay: Osteoporosis therapeutic study in OVX rats (micro-CT); type: in vivo, rat; set-up: Tb.N: unit not given beside the values
Experimental: Female SD rats or C57BL/6 mice were cared until they grown up to 6 months old or 10 weeks old, respectively. Then we subjected them to either bilateral ovariectomy or sham operation after anesthesia with 10% chloral hydrate (0.3 mL/100 g). Then all the rats or mice were intramuscular injected of penicillin to prevent infection in the first week of surgery. For rat experiments, after 12 weeks of operation, 3 rats from sham-operated or ovariectomized groups were random selected to determine bone mass by micro-CT imaging biopsy to verify successful produced bone loss(data unshown). Then the OVX rats were individually administrated with S3-15, S3, and S3-05 orally with (10 mg/kg/day) for another 12 weeks. For mouse experiments, after 4 weeks of surgery, the OVX mice were treated with 10 mg/kg/day S3-15 for another 4 weeks.
The weight of rats or mice were recorded every week in the treatment period. After treatment, the rats were harvested, the serum, heart, liver, spleen, lung, kidney, thymus, and femurs were all collected and subjected to subsequent analysis. The right femurs of rats or mice were cleaned excess soft tissue, fixed in 10% formalin, and processed them for microcomputed tomography (micro-CT) analysis. Left mice femurs were collected and excarnate for biomechanical strength testing. Mice peripheral blood were as well as collected for flow cytometry analyzing.
The right femurs of rats or mice were further analyzed with micro-CT on Inveon PET/CT (Siemens, Germany). We used micro-CT to scan the femur from the femoral head to the femoral condyle, using 19 μm resolution, 80 kV 500uA, 360 projection, 3000-6000 image threshold, full rotation cone beam. Three-dimensional reconstruction and histomorphometric analyses of trabecular bone were conducted with the IAW (Inveon analysis workstation) analysis software. The trabecular extended 1 mm (rat) or 0.5 mm (mice) proximally to the end of the distal growth plate over 2 mm (rats) or 1 mm (mice) toward the diaphysis was selected as the region of interest (ROI) for the analysis. The resulting two-dimensional images of trabecular bone in relative cross sections were shown in grayscale. Trabecular bone parameters were measured including bone volume/tissue volume (BV/TV), bone surface area/bone volume (BS/BV), trabecular number (Tb.N), trabecular thickness (Tb.Th), trabecular separation(Tb.Sp) and trabecular pattern factor(Tb.P.F).

[4] = OVX + compound, individual animals

For `CCOC(=O)c1sc(NC(=O)/C(=N/Nc2ccccc2C(=O)O)C(C)=O)nc1C` [S3, (E)-2-(2-(1-((5-(ethoxycarbonyl)-4-methylthiazol-2-yl)amino)-1,3-dioxobutan-2-ylidene) hydrazinyl) benzoic acid], the “bone resorption / RANKL-induced resorption pits” value [1] was “suppresses RANKL-induced resorption”, the IC50 ([2]; Mus musculus, Osteoclast, 120 h, BMMs, M-CSF + 100 ng/mL sRANKL, 5 days, TRAP staining, read-out: OC IC50 (anti-osteoclastogenesis activity)) was 0.096 µM and the inhibition at 0.0843226 µM ([2]; Mus musculus, Osteoclast, conc. 0.0843226 μM, three replicate columns, read-out: inhibition of osteoclastogenesis, dose-response (fig. S2a)) was 55.6%. For the same compound, the inhibition at 0.278265 µM ([2]; Mus musculus, Osteoclast, conc. 0.278265 μM, three replicate columns, read-out: inhibition of osteoclastogenesis, dose-response (fig. S2a)) was 62.8%, the inhibition at 0.918274 µM ([2]; Mus musculus, Osteoclast, conc. 0.918274 μM, three replicate columns, read-out: inhibition of osteoclastogenesis, dose-response (fig. S2a)) was 74.4% and the inhibition at 3.0303 µM ([2]; Mus musculus, Osteoclast, conc. 3.0303 μM, three replicate columns, read-out: inhibition of osteoclastogenesis, dose-response (fig. S2a)) was 82.5%. The inhibition at 10 µM ([2]; Mus musculus, Osteoclast, conc. 10 μM, three replicate columns, read-out: inhibition of osteoclastogenesis, dose-response (fig. S2a)) was 95.5%, the inhibition at 33 µM ([2]; Mus musculus, Osteoclast, conc. 33 μM, three replicate columns, read-out: inhibition of osteoclastogenesis, dose-response (fig. S2a)) was 100% and the “inhibition of osteoclastogenesis, dose-response (fig. S2a)” value (“inhibition of osteoclastogenesis” for short) ([2]; conc. 0.0023464 μM, three replicate columns) was 14.7982 and 23.3184 and -0.4484. The “inhibition of osteoclastogenesis” value ([2]; conc. 0.00774313 μM, three replicate columns) was 4.4843 and 2.691 and 14.7982, the “inhibition of osteoclastogenesis” value ([2]; conc. 0.0255523 μM, three replicate columns) was 42.1525 and 52.4664 and 21.0762 and the “inhibition of osteoclastogenesis” value ([2]; conc. 0.0843226 μM, three replicate columns) was 52.4664 and 43.4978. The “inhibition of osteoclastogenesis” value ([2]; conc. 0.278265 μM, three replicate columns) was 63.2287 and 72.1973, the “inhibition of osteoclastogenesis” value ([2]; conc. 0.918274 μM, three replicate columns) was 71.7489 and 80.2691 and the “inhibition of osteoclastogenesis” value ([2]; conc. 3.0303 μM, three replicate columns) was 79.8206 and 91.0314. The viability at 24 h, 0.08 μM ([3]; conc. 0.08 μM, read-out: cell viability relative to 0 μM (fig. S5e)) was 105%, the viability at 24 h, 0.28 μM ([3]; conc. 0.28 μM, read-out: cell viability relative to 0 μM (fig. S5e)) was 107% and the viability at 24 h, 0.92 μM ([3]; conc. 0.92 μM, read-out: cell viability relative to 0 μM (fig. S5e)) was 111%. For the same compound, the viability at 24 h, 3.03 μM ([3]; conc. 3.03 μM, read-out: cell viability relative to 0 μM (fig. S5e)) was 121%, the viability at 24 h, 10 μM ([3]; conc. 10 μM, read-out: cell viability relative to 0 μM (fig. S5e)) was 120% and the CC50 at 24 h ([3]; RAW264.7, MTT) was 44.6 µM. For the same compound, the “cell viability relative to 0 μM (fig. S5e)” value (RAW264.7 cells; conc. 0.08 μM) was 118.628 and 117.348, the “cell viability relative to 0 μM (fig. S5e)” value (RAW264.7 cells; conc. 0.28 μM) was 120.489 and 117.697 and the “cell viability relative to 0 μM (fig. S5e)” value (RAW264.7 cells; conc. 0.92 μM) was 125.722 and 127.234. For the same compound, the “cell viability relative to 0 μM (fig. S5e)” value (RAW264.7 cells; conc. 3.03 μM) was 128.164 and 131.886, the “cell viability relative to 0 μM (fig. S5e)” value (RAW264.7 cells; conc. 10 μM) was 130.258 and 129.909 and the BV/TV (OVX rats; [4]) was 0.3479 and 0.4471 and 0.777 and 0.287 and 0.2327 and 0.4826 and 0.4913. For the same compound, the Tb.N (OVX rats; [4]) was 0.07107 and 0.08431 and 0.1472 and 0.07083 and 0.06968 and 0.09727 and 0.1011, the Tb.Sp (OVX rats; [4]) was 0.1332 and 0.1043 (2×) and 0.04227 and 0.1759 and 0.2298 and 0.1047 and the Tb.Th (OVX rats; [4]) was 4.895 and 5.303 and 5.277 and 4.053 and 3.339 and 4.961 and 4.861. For the same compound, the “BV/TV of OVX rats” value (OVX rats; oral 10 mg/kg/day, 12 weeks, in words) was “increased”.
